{"source": "patent US9995734B2", "about": "“Human T cell line assay for evaluating the immunologic identity of glatiramer acetate preparations” (Mylan Inc., priority 2013, dated 2018)", "key": {"Donor 3 COP T-Cell Lines": {"tested_on": "Donor 3 COP T-Cell Lines", "assay": "ATP proliferation assay (CellTiter Glo), Donor 3 COP T-cell lines, incl. reactivity to non-canonical GA peptides", "type": "cell-based, human", "conditions": "for Non-Canonical Peptide Reactivity: at least one proliferation value >=2 times no antigen control"}, "Donor 3 GMA T-Cell Lines": {"tested_on": "Donor 3 GMA T-Cell Lines", "assay": "ATP proliferation assay (CellTiter Glo), Donor 3 GMA T-cell lines, incl. reactivity to non-canonical GA peptides", "type": "cell-based, human", "conditions": "for proliferation response to non-canonical GA peptides: 0, 1, 3, 10 μg/mL; for Non-Canonical Peptide Reactivity: at least one proliferation value >=2 times no antigen control"}}, "note": "“And” between values parts separate entries of the source, which are not always exact repeats. Equal entries are not always repeated."}
{"substance": "poly (Glu-Lys; 1:4) [GL 14]", "values": [{"measurement": "Non-Canonical Peptide Reactivity", "setting": "Donor 3 COP T-Cell Lines; 165-C4C", "value": "GL 14"}, {"measurement": "Non-Canonical Peptide Reactivity", "setting": "Donor 3 COP T-Cell Lines; 165-C7C", "value": "GL 14"}, {"measurement": "proliferation response to non-canonical GA peptides", "setting": "Donor 3 COP T-Cell Lines; 165-F3C (Day 77) and 165-C4C (Day 66), 0, 1, 3, 10 μg/mL", "value": "responded well"}, {"measurement": "Non-Canonical Peptide Reactivity", "setting": "Donor 3 COP T-Cell Lines; 165-F3C", "value": "GL 14"}, {"measurement": "proliferation response to non-canonical GA peptides", "setting": "Donor 3 COP T-Cell Lines; 165-F6C, Day 76, 0, 1.25, 2.5, 5, 10 μg/mL", "value": "reacted"}, {"measurement": "response relative to the no antigen control", "setting": "Donor 3 COP T-Cell Lines; 165-F6C, Day 76, dose of 2.5 μg/mL antigen", "value": 4.4, "unit": "fold"}, {"measurement": "Non-Canonical Peptide Reactivity", "setting": "Donor 3 COP T-Cell Lines; 165-F6C", "value": "GL 14"}, {"measurement": "Reactive T-Cell Line", "setting": "Donor 3 COP T-Cell Lines; Donor 3 COP lines, at least a 50% increase in proliferation relative to a control after stimulation with the non-canonical GA peptide", "value": "165-C4C (Donor 3) and 165-C7C (Donor 3) and 165-F6C (Donor 3) and 165-F3C (Donor 3)"}, {"measurement": "Proliferation (luminescent ATP assay), Mean", "setting": "Donor 3 COP T-Cell Lines; T-cell line 165-C4C, 1 μg/mL antigen, Day 66 of culture, 0 μg/mL 1881", "value": 2833}, {"measurement": "Proliferation (luminescent ATP assay), Mean", "setting": "Donor 3 COP T-Cell Lines; T-cell line 165-C4C, 3 μg/mL antigen, Day 66 of culture, 0 μg/mL 1881", "value": 4920}, {"measurement": "Proliferation (luminescent ATP assay), Mean", "setting": "Donor 3 COP T-Cell Lines; T-cell line 165-C4C, 10 μg/mL antigen, Day 66 of culture, 0 μg/mL 1881", "value": 49}, {"measurement": "Proliferation (luminescent ATP assay), Mean", "setting": "Donor 3 COP T-Cell Lines; T-cell line 165-C7C, 1.25 μg/mL antigen, autologous B-LCL", "value": 274, "unit": "RLU"}, {"measurement": "Proliferation (luminescent ATP assay), Mean", "setting": "Donor 3 COP T-Cell Lines; T-cell line 165-C7C, 2.5 μg/mL antigen, autologous B-LCL", "value": 1797, "unit": "RLU"}, {"measurement": "Proliferation (luminescent ATP assay), Mean", "setting": "Donor 3 COP T-Cell Lines; T-cell line 165-C7C, 5 μg/mL antigen, autologous B-LCL", "value": 537, "unit": "RLU"}, {"measurement": "Proliferation (luminescent ATP assay), Mean", "setting": "Donor 3 COP T-Cell Lines; T-cell line 165-C7C, 10 μg/mL antigen, autologous B-LCL", "value": 39, "unit": "RLU"}, {"measurement": "Proliferation (luminescent ATP assay), Mean", "setting": "Donor 3 COP T-Cell Lines; T-cell line 165-F3C, 1 μg/mL antigen, Day 77 of culture, 0 μg/mL 1563", "value": 2542}, {"measurement": "Proliferation (luminescent ATP assay), Mean", "setting": "Donor 3 COP T-Cell Lines; T-cell line 165-F3C, 3 μg/mL antigen, Day 77 of culture, 0 μg/mL 1563", "value": 7091}, {"measurement": "Proliferation (luminescent ATP assay), Mean", "setting": "Donor 3 COP T-Cell Lines; T-cell line 165-F3C, 10 μg/mL antigen, Day 77 of culture, 0 μg/mL 1563", "value": 65}, {"measurement": "Proliferation (luminescent ATP assay), Mean", "setting": "Donor 3 COP T-Cell Lines; T-cell line 165-F6C, 1.25 μg/mL antigen, Day 76 of culture, No Antigen value 517", "value": 699}, {"measurement": "Proliferation (luminescent ATP assay), Mean", "setting": "Donor 3 COP T-Cell Lines; T-cell line 165-F6C, 2.5 μg/mL antigen, Day 76 of culture, No Antigen value 517", "value": "2,267"}, {"measurement": "Proliferation (luminescent ATP assay), Mean", "setting": "Donor 3 COP T-Cell Lines; T-cell line 165-F6C, 5 μg/mL antigen, Day 76 of culture, No Antigen value 517", "value": 114}, {"measurement": "Proliferation (luminescent ATP assay), Mean", "setting": "Donor 3 COP T-Cell Lines; T-cell line 165-F6C, 10 μg/mL antigen, Day 76 of culture, No Antigen value 517", "value": 33}, {"measurement": "proliferation response to non-canonical GA peptides", "setting": "Donor 3 GMA T-Cell Lines; 165-B5G and 165-E7G, Day 55", "value": "responded well"}, {"measurement": "Non-Canonical Peptide Reactivity", "setting": "Donor 3 GMA T-Cell Lines; 165-B5G", "value": "GL 14"}, {"measurement": "Non-Canonical Peptide Reactivity", "setting": "Donor 3 GMA T-Cell Lines; 165-C5G", "value": "GL 14"}, {"measurement": "Non-Canonical Peptide Reactivity", "setting": "Donor 3 GMA T-Cell Lines; 165-E7G", "value": "GL 14"}, {"measurement": "Non-Canonical Peptide Reactivity", "setting": "Donor 3 GMA T-Cell Lines; 165-E9G", "value": "GL 14"}, {"measurement": "Non-Canonical Peptide Reactivity", "setting": "Donor 3 GMA T-Cell Lines; 165-F5G", "value": "GL 14"}, {"measurement": "proliferation response to non-canonical GA peptides", "setting": "Donor 3 GMA T-Cell Lines; 165-F10G, 165-C5G, 165-H11G, 165-C7C, 165-E9G, 165-F5G, minimum 55 days in culture", "value": "responded well"}, {"measurement": "Non-Canonical Peptide Reactivity", "setting": "Donor 3 GMA T-Cell Lines; 165-F10G", "value": "GL 14"}, {"measurement": "Non-Canonical Peptide Reactivity", "setting": "Donor 3 GMA T-Cell Lines; 165-H11G", "value": "GL 14"}, {"measurement": "Reactive T-Cell Line", "setting": "Donor 3 GMA T-Cell Lines; Donor 3 GMA lines, at least a 50% increase in proliferation relative to a control after stimulation with the non-canonical GA peptide", "value": "165-B5G (Donor 3) and 165-C5G (Donor 3) and 165-E7G (Donor 3) and 165-E9G (Donor 3) and 165-F5G (Donor 3) and 165-F10G (Donor 3) and 165-H11G (Donor 3)"}, {"measurement": "Proliferation (luminescent ATP assay), Mean", "setting": "Donor 3 GMA T-Cell Lines; T-cell line 165-B5G, 1.25 μg/mL antigen, Day 55 of culturing, No Antigen Value 846", "value": 3912, "unit": "RLU"}, {"measurement": "Proliferation (luminescent ATP assay), Mean", "setting": "Donor 3 GMA T-Cell Lines; T-cell line 165-B5G, 2.5 μg/mL antigen, Day 55 of culturing, No Antigen Value 846", "value": 3245, "unit": "RLU"}, {"measurement": "Proliferation (luminescent ATP assay), Mean", "setting": "Donor 3 GMA T-Cell Lines; T-cell line 165-B5G, 5 μg/mL antigen, Day 55 of culturing, No Antigen Value 846", "value": 501, "unit": "RLU"}, {"measurement": "Proliferation (luminescent ATP assay), Mean", "setting": "Donor 3 GMA T-Cell Lines; T-cell line 165-B5G, 10 μg/mL antigen, Day 55 of culturing, No Antigen Value 846", "value": 45, "unit": "RLU"}, {"measurement": "Proliferation (luminescent ATP assay), Mean", "setting": "Donor 3 GMA T-Cell Lines; T-cell line 165-C5G, 1.25 μg/mL antigen, autologous B-LCL", "value": 1412, "unit": "RLU"}, {"measurement": "Proliferation (luminescent ATP assay), Mean", "setting": "Donor 3 GMA T-Cell Lines; T-cell line 165-C5G, 2.5 μg/mL antigen, autologous B-LCL", "value": 5418, "unit": "RLU"}, {"measurement": "Proliferation (luminescent ATP assay), Mean", "setting": "Donor 3 GMA T-Cell Lines; T-cell line 165-C5G, 5 μg/mL antigen, autologous B-LCL", "value": 703, "unit": "RLU"}, {"measurement": "Proliferation (luminescent ATP assay), Mean", "setting": "Donor 3 GMA T-Cell Lines; T-cell line 165-C5G, 10 μg/mL antigen, autologous B-LCL", "value": 43, "unit": "RLU"}, {"measurement": "Proliferation (luminescent ATP assay), Mean", "setting": "Donor 3 GMA T-Cell Lines; T-cell line 165-E7G, 1.25 μg/mL antigen, autologous B-LCL, Day 55", "value": 10001, "unit": "RLU"}, {"measurement": "Proliferation (luminescent ATP assay), Mean", "setting": "Donor 3 GMA T-Cell Lines; T-cell line 165-E7G, 2.5 μg/mL antigen, autologous B-LCL, Day 55", "value": 14902, "unit": "RLU"}, {"measurement": "Proliferation (luminescent ATP assay), Mean", "setting": "Donor 3 GMA T-Cell Lines; T-cell line 165-E7G, 5 μg/mL antigen, autologous B-LCL, Day 55", "value": 4087, "unit": "RLU"}, {"measurement": "Proliferation (luminescent ATP assay), Mean", "setting": "Donor 3 GMA T-Cell Lines; T-cell line 165-E7G, 10 μg/mL antigen, autologous B-LCL, Day 55", "value": 58, "unit": "RLU"}, {"measurement": "Proliferation (luminescent ATP assay), Mean", "setting": "Donor 3 GMA T-Cell Lines; T-cell line 165-E9G, 1.25 μg/mL antigen, autologous B-LCL", "value": 145, "unit": "RLU"}, {"measurement": "Proliferation (luminescent ATP assay), Mean", "setting": "Donor 3 GMA T-Cell Lines; T-cell line 165-E9G, 2.5 μg/mL antigen, autologous B-LCL", "value": 801, "unit": "RLU"}, {"measurement": "Proliferation (luminescent ATP assay), Mean", "setting": "Donor 3 GMA T-Cell Lines; T-cell line 165-E9G, 5 μg/mL antigen, autologous B-LCL", "value": 268, "unit": "RLU"}, {"measurement": "Proliferation (luminescent ATP assay), Mean", "setting": "Donor 3 GMA T-Cell Lines; T-cell line 165-E9G, 10 μg/mL antigen, autologous B-LCL", "value": 38, "unit": "RLU"}, {"measurement": "Proliferation (luminescent ATP assay), Mean", "setting": "Donor 3 GMA T-Cell Lines; T-cell line 165-F5G, 1.25 μg/mL antigen, autologous B-LCL", "value": 559, "unit": "RLU"}, {"measurement": "Proliferation (luminescent ATP assay), Mean", "setting": "Donor 3 GMA T-Cell Lines; T-cell line 165-F5G, 2.5 μg/mL antigen, autologous B-LCL", "value": 2779, "unit": "RLU"}, {"measurement": "Proliferation (luminescent ATP assay), Mean", "setting": "Donor 3 GMA T-Cell Lines; T-cell line 165-F5G, 5 μg/mL antigen, autologous B-LCL", "value": 89, "unit": "RLU"}, {"measurement": "Proliferation (luminescent ATP assay), Mean", "setting": "Donor 3 GMA T-Cell Lines; T-cell line 165-F5G, 10 μg/mL antigen, autologous B-LCL", "value": 38, "unit": "RLU"}, {"measurement": "Proliferation (luminescent ATP assay), Mean", "setting": "Donor 3 GMA T-Cell Lines; T-cell line 165-F10G, 1.25 μg/mL antigen, autologous B-LCL", "value": 5153, "unit": "RLU"}, {"measurement": "Proliferation (luminescent ATP assay), Mean", "setting": "Donor 3 GMA T-Cell Lines; T-cell line 165-F10G, 2.5 μg/mL antigen, autologous B-LCL", "value": 19489, "unit": "RLU"}, {"measurement": "Proliferation (luminescent ATP assay), Mean", "setting": "Donor 3 GMA T-Cell Lines; T-cell line 165-F10G, 5 μg/mL antigen, autologous B-LCL", "value": 1990, "unit": "RLU"}, {"measurement": "Proliferation (luminescent ATP assay), Mean", "setting": "Donor 3 GMA T-Cell Lines; T-cell line 165-F10G, 10 μg/mL antigen, autologous B-LCL", "value": 53, "unit": "RLU"}, {"measurement": "Proliferation (luminescent ATP assay), Mean", "setting": "Donor 3 GMA T-Cell Lines; T-cell line 165-H11G, 1.25 μg/mL antigen, autologous B-LCL", "value": 144, "unit": "RLU"}, {"measurement": "Proliferation (luminescent ATP assay), Mean", "setting": "Donor 3 GMA T-Cell Lines; T-cell line 165-H11G, 2.5 μg/mL antigen, autologous B-LCL", "value": 4416, "unit": "RLU"}, {"measurement": "Proliferation (luminescent ATP assay), Mean", "setting": "Donor 3 GMA T-Cell Lines; T-cell line 165-H11G, 5 μg/mL antigen, autologous B-LCL", "value": 118, "unit": "RLU"}, {"measurement": "Proliferation (luminescent ATP assay), Mean", "setting": "Donor 3 GMA T-Cell Lines; T-cell line 165-H11G, 10 μg/mL antigen, autologous B-LCL", "value": 40, "unit": "RLU"}]}
